According to patent US4618610A, “Triazine derivatives, and pharmaceutical compositions comprising the same” (Fujisawa Pharmaceutical Co., Ltd., priority 1983, dated 1986):
Like-named read-outs stand apart in the source and are kept apart here.

Experiments:
blood pressure = assay: Test method A: antihypertensive activity, oral, in uninephrectomized DOCA/saline rats; assay type: in vivo, rat (Wister); conditions: orally, DOCA rats, mean arterial pressure
Experimental: Five-week old male Wister rats were uninephrectomized under anesthesia. Deoxycorticosterone […] (DOCA) (30 mg/kg), suspended in peanut oil, was injected subcutaneously twice a week and 1% saline was substituted for the drinking water. Animals with mean blood pressure 150-200 mmHg were used for experiment between 5 and 7 weeks after surgery.
The test compounds were administered orally.
Blood pressure was measured at the femoral artery by means of a pressure transducer and recorded as electrically integrated values of mean arterial pressure.
a: The test compound were administered orally in a dose of 1 mg/kg.
b: The test compound were administered orally in dose of 0.1 mg/kg.

platelet = assay: Test Method B: inhibition of platelet aggregation in platelet rich plasma; assay type: cell-based; conditions: Oryctolagus cuniculus, rabbit PRP, 37° C.
Experimental: Platelet rich plasma (PRP) which contains 6.5-7.5×10^8 platelet/ml was prepared from rabbit blood. To the 200 ul of PRP, 5 μl of calcium chloride (1 mM) and 50 μl of pH 7.4 Tris-acetate solution (5 mM) containing 120 mM NaCl and test compound were added successively, and then stirred for 2 min. at 37° C. To the solution, 5 μl of adenosine diphosphate (ADP) (2.5 μM) or collagen (2.5 ug/ml) was added as an aggregation inducer. Aggregation was measured by using an aggregometer (NKK HEMA TRACER 1).

ethanol ulcer = assay: Test methods C: ethanol ulcer (antiulcer activity); assay type: in vivo, rat (Sprague-Dawley); conditions: 32 mg/kg orally, 30 minutes before absolute ethanol (5 ml/kg)
Experimental: Five male Sprague-Dawley rats, aged 7 weeks and weighing about 200 g, were used per group for the study on ethanol ulcer after the fast for 24 hours.
Test compound was suspended in 0.1% methylcellulose aqueous solution, and the suspension (5 ml/kg) was orally given to each rat.
The control group was given a vehicle, i.e. 0.1% methylcellulose aqueous solution (5 ml/kg), alone in the same way.
Absolute ethanol (5 ml/kg) was orally administered 30 minutes after dosing with test compound, and one hour later, the rats were sacrificed and their stomachs were removed. The area of ulcers of each rat was measured. The mean area (mm^2) in the medicated group was compared with that in the control group.

[1] = ADP (2.5 μM) as aggregation inducer, read-out: ID50 ADP (platelet aggregation)
[2] = collagen (2.5 ug/ml) as aggregation inducer, read-out: ID50 Collagen (platelet aggregation)

SMILES: CC1NC(=O)NN=C1c1ccc(NC(=O)C2CC2)cc1 (stereo not shown) [Example 24-(10), 6-(4-Cyclopropanecarbonylaminophenyl)-5-methyl-4,5-dihydro-1,2,4-triazin-3(2H)-one]
- Effect Max (mean ratio of maximum decrease of blood pressure) (blood pressure; dose b: 0.1 mg/kg): 41.1%
- IC50 (platelet; [1]): 34 nM
- IC50 (platelet; [2]): 3.1 nM

SMILES: CNC(=O)Nc1ccc(C2=NNC(=O)NC2C)cc1 (stereo not shown) [Example 6, 6-[4-(3-methylureido)phenyl]-5-methyl-4,5-dihydro-1,2,4-triazin-3(2H)-one]
- Effect Max (mean ratio of maximum decrease of blood pressure) (blood pressure; dose a: 1 mg/kg): 43.1%
- Effect Max (mean ratio of maximum decrease of blood pressure) (blood pressure; dose b: 0.1 mg/kg): 6.6%
- IC50 (platelet; [1]): 740 nM
- IC50 (platelet; [2]): 410 nM

SMILES: CC(=O)Nc1ccc(C2=NNC(=S)NC2C)cc1 (stereo not shown) [Example 23-(3), 6-(4-acetamidophenyl)-5-methyl-4,5-dihydro-1,2,4-triazin-3(2H)-thione]
- Effect (mean ulcer area compared with control group) (ethanol ulcer): 87.0%

SMILES: CCOC(=O)Nc1ccc(C2=NNC(=O)NC2C)cc1 (stereo not shown) [Example 24-(4), 6-(4-Ethoxycarbonylaminophenyl)-5-methyl-4,5-dihydro-1,2,4-triazin-3(2H)-one]
- Effect Max (mean ratio of maximum decrease of blood pressure) (blood pressure; dose a: 1 mg/kg): 54.5%
- Effect Max (mean ratio of maximum decrease of blood pressure) (blood pressure; dose b: 0.1 mg/kg): 28.6%
- IC50 (platelet; [1]): 380 nM
- IC50 (platelet; [2]): 69 nM

SMILES: CC(=O)Nc1ccc(C2=NNC(=O)NC2C)cc1 (stereo not shown) [Example 1-(3), 6-(4-acetamidophenyl)-5-methyl-4,5-dihydro-1,2,4-triazin-3(2H)-one]
- Effect Max (mean ratio of maximum decrease of blood pressure) (blood pressure; dose a: 1 mg/kg): 48.9%
- Effect Max (mean ratio of maximum decrease of blood pressure) (blood pressure; dose b: 0.1 mg/kg): 19.2%
- IC50 (platelet; [1]): 620 nM
- IC50 (platelet; [2]): 220 nM
